Results reported in patent US5314896A, “1,3-substituted cycloalkenes and cycloalkanes as central nervous system agents” (priority 1992, dated 1994).
Read-outs that look alike come from different tables or passages of the source.

What was measured:
dopamine receptors [1] = test: Inhibition of [^3 H] spiroperidol binding
Description: (§1) The compounds of Formula I are valuable dopaminergic agents. […] Thus, the compounds of Formula I were tested for their ability to inhibit locomotor activity in mice and rats, a measure of antipsychotic activity, according to the assay described by J. R. McLean, et al, Pharmacology, Biochemistry and Behavior, Vol. 8, pages 97-99 (1978); for their ability to bind to dopamine receptors as measured by their inhibition of [^3 H]spiroperidol binding in a receptor assay described by D. Grigoriadis and P. Seeman, Journal of Neurochemistry, Vol. 44, pages 1925-1935 (1985); and for their ability to effect dopamine synthesis in rats according to the protocol described by J. R. Walters and R. H. Roth, Naunyn-Schmiedebero's Archives of Pharmacology, Vol. 296, pages 5-14 (1976). The above test methods are incorporated herein by reference. The data in the table show the dopaminergic activity of representative compounds of Formula I.

dopamine receptors [2] = test: Comparison of 1,3 versus 1,4 series activity (binding and locomotor activity), results in words; settings: Table 2
Description: (§2) Thus, the compounds of Formula I were tested for their ability to inhibit locomotor activity in mice and rats, a measure of antipsychotic activity, according to the assay described by J. R. McLean, et al, Pharmacology, Biochemistry and Behavior, Vol. 8, pages 97-99 (1978); for their ability to bind to dopamine receptors as measured by their inhibition of [^3 H]spiroperidol binding in a receptor assay described by D. Grigoriadis and P. Seeman, Journal of Neurochemistry, Vol. 44, pages 1925-1935 (1985); and for their ability to effect dopamine synthesis in rats according to the protocol described by J. R. Walters and R. H. Roth, Naunyn-Schmiedebero's Archives of Pharmacology, Vol. 296, pages 5-14 (1976). The above test methods are incorporated herein by reference.
(§3) The most important test is the locomotor activity orally in the rat as this corresponds most closely to human oral administration of an antipsychotic compound.

[3] = test system: Locomotor Activity in Mice; test: Inhibition of locomotor activity in mice; type: in vivo; settings: for ED50: Mus musculus
Description: as §1

Brain Dopamine Synthesis = test: % effects on brain dopamine synthesis in rats; type: in vivo; settings: for change in vivo at 10 mg/kg: Rattus norvegicus
Description: as §1

[4] = test system: Locomotor Activity in Rats; test: Inhibition of locomotor activity in rats (oral); type: in vivo
Description: as §2, §3

[5] = mice, IP (Table 2), read-out: Inhibition of Locomotor Activity in Mice ED50
[6] = ip, read-out: % Effects on Brain Dopamine Synthesis in Rats, rats, 10 mg/kg, IP (Table 1)
[7] = ip, read-out: Inhibition of Locomotor Activity in Mice ED50, mice, IP (Table 1)

Row | Structure (SMILES) | IC50 (dopamine receptors [1]; Table 1) | change in vivo at 10 mg/kg (Brain Dopamine Synthesis; [6]) | ED50 [3, 7] | other results
1 | C1=C(c2ccccc2)CCC(CCN2CCN(c3ccccn3)CC2)C1 (racemic) [H, (±)-1-[(4-phenyl-3-cyclohexen-1-yl)ethyl]-4-(2-pyridinyl)piperazine, reference compound] |  |  |  | IC50 (dopamine receptors [1]; Table 2): 409 nM; binding and locomotor activity (dopamine receptors [2]): much more active than Compound G; ED50 [3, 5]: 1.1 mg/kg
2 | C1=C(c2ccccc2)CCN(CC2CCC=C(c3ccccc3)C2)C1 (racemic) [Example 1, (±)-1,2,3,6-Tetrahydro-4-phenyl-1-[(3-phenyl-3-cyclohexen-1-yl)methyl]pyridine] | 72 nM | -86% | 1.6 mg/kg | IC50 (dopamine receptors [1]; Table 2): 72 nM; locomotor activity orally in the rat ([4]; Table 2 compounds): clearly the most potent; times more active than the 1,4 Compound C, locomotor activity orally in the rat ([4]; versus Compound C): 4.8 times; binding and locomotor activity (dopamine receptors [2]): surprisingly much more active in its binding and locomotor activity; ED50 ([3]; ip, read-out: Inhibition of Locomotor Activity in Mice ED50, mice, IP (Table 2)): 1.6 mg/kg
3 | C1=C(c2ccccc2)CC(N2CCN(c3ccccn3)CC2)CC1 (racemic) [Compound J, (±)-1-(3-phenyl-3-cyclohexen-1-yl)-4-(2-pyridinyl)piperazine, reference compound] |  |  |  | IC50 (dopamine receptors [1]; Table 2): 9850 nM; binding and locomotor activity (dopamine receptors [2]): essentially inactive; ED50 [3, 5]: 28.2 mg/kg
4 | Cc1ccc(C2=CCC[C@@H](CN3CC=C(c4ccccc4)CC3)C2)cc1 [Example 9, (R)-1,2,3,6-tetrahydro-1-[[3-(4-methylphenyl)-3-cyclohexen-1-yl]methyl]-4-phenylpyridine] | 184 nM | -42% | 0.8 mg/kg | 
5 | C1=C(c2ccccc2)CCCC1CN1CC=C(c2ccccc2)CC1 (racemic) [Example 1a, (±)-1,2,3,6-Tetrahydro-4-phenyl-1-[(3-phenyl-2-cyclohexen-1-yl)methyl]pyridine] | 420 nM | -34% | 2.5 mg/kg | 
6 | C1=C(c2ccccc2)CCN(C[C@H]2C=C(c3cccs3)CCC2)C1.Cl [Example 10a, (R)-1,2,3,6-tetrahydro-4-phenyl-1-[[3-(2-thienyl)-2-cyclohexen-1-yl]methyl]pyridine monohydrochloride] | 110 nM | -58% | 1.5 mg/kg | 
7 | O=C(N[C@H]1CCC[C@@H](CN2CC=C(c3ccccc3)CC2)C1)c1ccccc1 [Example 19, (1S-cis)-N-[3-[(3,6-dihydro-4-phenyl-1(2H)-pyridinyl)methyl]cyclohexyl]benzamide] | 34 nM | -95% | 0.15 mg/kg | 
8 | C1=C(c2cccnc2)CCC[C@H]1CN1CC=C(c2ccccc2)CC1.Cl.Cl [Example 12a, (R)-3-[3-[(3,6-dihydro-4-phenyl-1(2H)-pyridinyl)methyl]-1-cyclohexen-1-yl]pyridine dihydrochloride] | 87 nM | -97% | 0.07 mg/kg | 
9 | CN(C)c1ccc(C2=CCC[C@@H](CN3CC=C(c4ccccc4)CC3)C2)cc1 [Example 16, (R)-4-[5-[(3,6-dihydro-4-phenyl-1(2H)-pyridinyl)methyl]-1-cyclohexen-1-yl]-N,N-dimethylbenzeneamine] | 53 nM | -76% | 0.2 mg/kg | 
10 | C1=C(c2ccccc2)CCN(C[C@@H]2CCC=C(c3cccs3)C2)C1.Cl [Example 10, (R)-1,2,3,6-tetrahydro-4-phenyl-1-[[3-(2-thienyl)-3-cyclohexen-1-yl]methyl]pyridine monohydrochloride] | 79 nM | -54% | 1.6 mg/kg | 
11 | Fc1ccc(C2=CCC[C@@H](CN3CC=C(c4ccccc4)CC3)C2)cc1 [Example 8, (R)-1-[[3-(4-fluorophenyl)-3-cyclohexen-1-yl]methyl]-1,2,3,6-tetrahydro-4-phenylpyridine] | 76 nM | -74% | 4 mg/kg | 
12 | C1=C(c2ccccc2)CCN(C[C@@H]2CCC[C@H](c3ccccc3)C2)C1.Cl [Example 20, (1R-cis) 1,2,3,6-tetrahydro-4-phenyl-1-[(3-phenylcyclohexyl)methyl]pyridine monohydrochloride] | 71 nM | -100% | 0.7 mg/kg | 
13 | C1=C(c2ccccc2)CCC(N2CCN(c3ccccn3)CC2)C1 (racemic) [F, (±)-1-(4-phenyl-3-cyclohexen-1-yl)-4-(2-pyridinyl)piperazine, reference compound] |  |  |  | IC50 (dopamine receptors [1]; Table 2): 599 nM; binding and locomotor activity (dopamine receptors [2]): much more active than Compound G; ED50 [3, 5]: 1.01 mg/kg
14 | C1=C(c2ccccc2)CCN(CC2CCC=C(c3ccccc3)C2)C1 (single isomer, unassigned; (-)) [Example 6a, (-)-1,2,3,6-Tetrahydro-4-phenyl-1-[(3-phenyl-3-cyclohexen-1-yl)methyl]pyridine] | 420 nM |  |  | % Effects on Brain Dopamine Synthesis in Rats (Brain Dopamine Synthesis; rats, 10 mg/kg, IP (Table 1)): -34%; Inhibition of Locomotor Activity in Mice ED50 ([3]; mice, IP (Table 1)): 5.6 mg/kg
15 | C1=C(c2ccccc2)CC(CN2CCN(c3ccccn3)CC2)CC1 (racemic) [Example 4, (±)-1-[(3-phenyl-3-cyclohexen-1-yl)methyl]-4-(2-pyridinyl)piperazine] | 141 nM |  |  | IC50 (dopamine receptors [1]; Table 2): 141 nM; change in vivo at 10 mg/kg (Brain Dopamine Synthesis; rats, 10 mg/kg, IP (Table 1), read-out: % Effects on Brain Dopamine Synthesis in Rats): -61%; binding and locomotor activity (dopamine receptors [2]): very potent; ED50 ([3]; mice, IP (Table 1), read-out: Inhibition of Locomotor Activity in Mice ED50): 0.85 mg/kg
16 | Fc1ccc(C2=CC(CN3CC=C(c4ccccc4)CC3)CCC2)cc1 (racemic) [Example 3a, (±)-1-[[3-(4-Fluorophenyl)-2-cyclohexen-1-yl]methyl]-1,2,3,6-tetrahydro-4-phenylpyridine] | 1070 nM | -41% | 2.9 mg/kg | 
17 | C1=C(c2ccccc2)CCN(CC2CCC=C(c3ccccc3)C2)C1 (single isomer, unassigned; (+)) [Example 6, (+)-1,2,3,6-Tetrahydro-4-phenyl-1-[(3-phenyl-3-cyclohexen-1-yl)methyl]pyridine] | 227 nM |  |  | % Effects on Brain Dopamine Synthesis in Rats (Brain Dopamine Synthesis; rats, 10 mg/kg, IP (Table 1)): -50%; Inhibition of Locomotor Activity in Mice ED50 ([3]; mice, IP (Table 1)): 1.0 mg/kg
